From patent US20050222036A1, “Peptide compositions with effects on blood glucose” (priority 2000, published 2005)
Marks after values point to notes of the source that are not given here.

Tests used:
[1] = system: rats; test: Morris Water Maze (MWM), spatial learning in rats; format: in vivo, rat; conditions: for acquisition of spatial learning: intranasal (arecoline s.c.), four trials
Description: Spatial learning was assessed using the Morris Water Maze (Morris et al. Nature, 1982, 297: 681). Information was relayed via a tracker (HSV Image, Hampton, UK) to a personal computer, which was quantified by a specialized computer program (Water 2020, Hampton, UK). The acquisition study was performed as described previously. Animals were anaesthetized with isofluorane then administered peptide intra-nasally 20 min before testing. Rats were given four training trials. 48 h after training, a retention test was performed: rats were allowed to find the hidden platform for one trial. Mice initially had six trials without treatment to habituate them to the procedure. The following day, they were administered vehicle or [Ser(2)]exendin(1-9) (SEQ ID NO:1) and trained for an additional four trials with the platform in a new location. For a retention test, mice were given one trial to locate the platform the next day. Latency to find the platform was considered a measure of retention of spatial learning.
(§1) The elevated plus maze consists of two open and two closed arms; time spent and the number of entries into open arms are indicators of neophobic anxiety in rats. The number of entries and total time spent in the open arms were tabulated over 5 min by an observer blind to the experimental condition. Animals falling off the apparatus were eliminated from the study. For the intracerebroventricular (i.c.v.) studies, rats were implanted with a cannula (22 gauge, Plastics One, Roanoke, Va.) into the left ventricle (AP 0.8 mm, ML 1.6 mm, DV 3.5 mm from dura) then allowed at least 3-4 days to recover. The peptides were infused in a total volume of 2 μl (1 μl min −1) 25 min before training with two trials per day for 5 days. The visual platform test was conducted after the last training trial on day 5 in a different location of the pool.
In another series of experiments, rats (N=15-16) were pretreated with either Gilatide (10 μg/kg, 30 μg/kg, or 60 μg/kg) or vehicle and then trained for four trials in a Morris Water Maze. Two days following training, the rats were retested. Latency to find a submerged platform in the Morris Water Maze paradigm was measured.
Clinically approved treatments for cognitive impairment act primarily on the cholinergic system. The effects of intranasal GLP-1 and [Ser(2)]exendin(1-9) were compared with that of the cholinergic agonist arecoline on spatial learning in a modified version of the MWM (Setlow, B. et al. Learn. Mem, 2000. 7: 187). Rats were first administered vehicle, [Ser(2)]exendin(1-9), GLP-1 or arecoline, and trained for four trials to locate a submerged platform. They were then tested in a single retention trial 48 hours after initial training. There were no differences between treatments in acquisition (FIG. 10A).

[2] = system: rats; test: Contextual fear conditioning in rats; format: in vivo, rat; conditions: vs naïve and EGFP controls
Description: Fear conditioning was performed in a modified apparatus (MED Associates Inc., St. Albans, Vt.) housed in a sound attenuated cubicle. […] The animal was placed in the chamber and the occurrence of freezing behavior measured every 10 sec for 2 min before a shock was administered (rats, […], 2 sec; mice, 0.5 mA, 5 sec). Freezing behavior was measured again (for 5 min) the next day. The apparatus was cleaned with 1% acetic acid following conditioning of each animal.
To determine whether increasing GLP-1R levels in the hippocampus would enhance learning, rAAV vectors expressing control EGFP vector and GLP-1R were generated and injected into the hippocampus of rats. See Example 1(vi) for protocol. Three weeks following vector injection, robust hippocampal expression was obtained (data not shown) with transgene mRNA expression in the principal cell groups of the hippocampus. […] See Example 1 (vii) for protocol. A separate group of rats treated in the same manner was trained twice daily for 5 days in the MWM. […] The decrease in latency was not due to increased swimming speed (both GLP-1R and EGFP controls were approx. 23 cm/sec) nor stress effects (Table 4). Furthmore, the decreased latency was not due to a disruption in visual acuity and general locomotion and swimming ability, because rats from both groups located a visual platform in a similar manner (approx. 32±3 sec latency). […]

[3] = system: rats; test: Elevated plus maze test (anxiogenic effects); format: in vivo, rat; set-up: TIME Open Arm / TIME Closed Arm: unit not given here
Description: as §1

[4] = system: rats; test: Passive avoidance (PA), associative learning in rats; format: in vivo, rat
Description: Passive avoidance was performed in an apparatus (MED Associates Inc., St. Albans, Vt.) consisting of one dark chamber and one light chamber that can be divided by a guillotine door. The training procedure was executed as previously described (N. Venable et al. Psychopharmacology 100, 215 (1990)). Rats were administered a 1.0 mA shock for 3 sec, mice a 0.5 mA shock for 5 sec. Retention tests were performed either at 1, 3 or 7 days post-pairing. Maximum latency was 600 sec for rats, 300 sec for mice.
In the instant invention, rats were pretreated intranasally with one of three dose levels (10 μg/kg, 30 μg/kg, or 60 μg/kg) of Gilatide in 5% β cyclodextrin or an octamer having a sequence homology to CRH and urocortin. […] A control group received vehicle (5% cyclodextrin) alone. With three dose levels for each of the peptides studied, a total of seven (7) groups were employed, each group having 5-8 rats, for a total of 50 rats tested. On the first day of conditioning, the pretreated rats (N=7-13) were administered a single foot shock trial (0.1 mA over 3 seconds) after entering the dark compartment. The animals were replaced in the test apparatus and latencies again were measured on Days 1, 3, 7, and 21 following the aversive stimulus.
Rats were pretreated with either […] 10 μg/kg Gilatide in 5% β cyclodextrin or vehicle by one of three routes of administration: intranasally, subcutaneously, or intraperitoneally. On Day 0, the rats (N=7-13) were conditioned by administration of a single foot shock trial (0.1 mA over 3 seconds) after entry into the dark compartment of a passive avoidance apparatus (the same passive avoidance chamber used in the first series of experiments). At 24 hours (Day 1) following the initial test, and delivery of the single shock, the animals were replaced in the test apparatus and latency again measured. (FIG. 7)
Rates (N=5-10) were pretreated intranasally with one of five dose levels (0.1 μg/kg, 1 μg/kg, 3 μg/kg, 30 μg/kg or 60 μg/kg) of Gilatide in 5% β cyclodextrin, vehicle (5% cyclodextrin), or Nicotine (0.3 mg/kg, subcutaneously). On Day 0, the rats were conditioned by administration of a single foot shock trial (0.1 mA over 3 seconds) after entry into the dark compartment of a passive avoidance apparatus (the same passive avoidance chamber used in the other experiments). The preconditioned rats were retested on Days 1, 3, 7, and 21.
The effect of Gilatide was tested on memory consolidation by administering the peptide after shock testing. Rats (N=7-13) were preconditioned by administering a single foot shock trial (0.1 mA over 3 seconds) after entering the dark compartment of a passive avoidance apparatus. Twenty (20) minutes after the conditioning session, one group of rats was administered 10 μg/kg of Gilatide intranasally (TRN-TXT). Another group of rats (TXT-DLY-TRN) was administered this same dose of Gilatide 24 hours after the conditioning session. Both treatment groups were returned to the test apparatus 24 hours following treatment and latencies were again measured. […] (FIG. 13)
The effects of Gilatide when used with or without an Exendin-4 antagonist were observed and measured. Rats (N=6-13) were pretreated with either 10 μg/kg or 20 μg/kg of Gilatide with or without an Exendin-4 antagonist (10 μg/kg). A control group was administered vehicle alone. The pretreated rats were conditioned on Day 0 by administration of a single foot shock trial (0.1 mA over 3 seconds) after entry into the dark compartment of a passive avoidance apparatus (the same passive avoidance chamber used in the other experiments). The preconditioned rats were retested on 24 hours later. […] (FIG. 14)
Twenty-four hours later the rats were returned to the apparatus and retested. […] (FIG. 15)

[5] = Blood glucose in fasting rats; format: in vivo, rat; conditions: 24 hour fasting rats, 100 ug intraperitoneal; for Blood glucose mean ± s.e.m.: 20 minutes after administration
Description: Gilatide administered intraperitoneally (IP), but not intranasally (IN), lowers blood glucose levels in rats fasted for 24 hours. […] Gilatide's effect on blood glucose in fasting rats was measured. Groups of 24 hour fasting rats (n=5 or 6) were delivered either vehicle, insulin, Gilatide, GLP-1, exendin-4, Insulin A-chain, Insulin B-chain or C-peptide. Glucose levels were measured 20 minutes following intraperitoneal administration. All peptides were given at a dose of 100 ug (Table 2). In this experiment, insulin, the positive control, led to a 44% drop in blood glucose. Gilatide led to a significant drop in glucose level by 14%.

[6] = system: rat insulinoma cell line expressing the GLP-1R (RINm5f); test: ELISA of culture media for insulin, RINm5f cells; format: cell-based; conditions: 10 nM peptide, 6 hours
Description: To confirm biologic activity of Gilatide peptides or analogs, a rat insulinoma cell line expressing the GLP-1R (RINm5f) can be cultured and incubated the Gilatide peptide or analogs followed by an ELISA study as described below.
To confirm biological activity of synthesized Gilatide peptide ([Ser(2)]exendin(1-9)) that was synthesized with a stearic acid residue added to the N-terminus, GLP-1 or [Ser(2)]exendin(1-9) (10 nM) were incubated with the cultured rat insulinoma cell line expressing the GLP-1R (RINm5f) in the presence or absence of the GLP-1R antagonist, exendin(9-39) (10 nM). Rat insulinoma cells (RINm5f) were cultured in 24 well plates and incubated in serum-free medium for 1 hour before treatment. The GLP-1 peptide antagonist exendin (9-39) (10 nM) was added 1 hour prior to GLP-1 (7-36) or [Ser(2)]exendin(1-9) (10 nM). Cells were then incubated for 6 hours in the presence of either GLP-1 or [Ser(2)]exendin(1-9). Media were then removed and assayed for insulin concentrations via ELISA (Pennisula Labs, San Carlos, Calif.).

[7] = system: rats; test: Elevated plus maze test (anxiogenic effects); format: in vivo, rat; set-up: TIME Open Arm / TIME Closed Arm: unit not given here; conditions: 10 ng ICV
[8] = Blood glucose in fasting rats; format: in vivo, rat; conditions: for blood glucose: intra-nasal
[9] = i.c.v., GLP-1 10 ng and 100 ng, [Ser(2)]exendin(1-9) 10 ng

COC(=O)C1=CCCN(C)C1 [arecoline]
latency to locate the submerged platform in the retention trial ([1]; modified MWM, 48 hours after training, [Ser(2)]exendin(1-9) 30 μg intranasal, arecoline 0.3 mg s.c.): significantly reduced the latency | acquisition of spatial learning ([1]; modified MWM): did not affect acquisition of spatial learning | freezing behavior in contextual fear conditioning [2]: enhanced freezing behavior

C1CCc2nnnn2CC1 [PTZ]
ENTRIES Closed Arm ([3]; 20 mg/kg IP): 1.6 ± 0.4 | ENTRIES Open Arm ([3]; 20 mg/kg IP): 0*** | TIME Closed Arm ([3]; 20 mg/kg IP): 249.6 ± 13.32 | TIME Open Arm ([3]; 20 mg/kg IP): 0***

COc1cccc(-c2cc(=O)c3ccccc3o2)c1N [PD98059]
effect on enhancement of associative learning by intranasal [Ser(2)]exendin(1-9) ([4]; PD98059 5 μg i.c.v. before (PRE) training): not when given before (PRE) training | effect on enhancement of associative learning by intranasal [Ser(2)]exendin(1-9) ([4]; PD98059 5 μg i.c.v. immediately after training (POST)): completely blocked

CN1CCCC1c1cccnc1 (stereo not drawn) [nicotine]
latency in PA ([4]; 0.3 mg/kg subcutaneously, 24 hours): modestly increased latencies

Insulin
drop in blood glucose ([5]; 20 minutes): 44% | Blood glucose mean ± s.e.m. [5]: 50.7 ± 8.2 (P < 0.01) mg/dl

Insulin A chain: inactive insulin fragment
Blood glucose mean ± s.e.m. [5]: 90.3 ± 4.7 mg/dL

Cc1ncc2n1-c1ccc(Cl)cc1C(c1ccccc1F)=NC2 [Midazolam]
ENTRIES Closed Arm ([3]; 1.5 mg/kg IP): 5.1 ± 0.5 | ENTRIES Open Arm ([3]; 1.5 mg/kg IP): 6.6 ± 0.7 | TIME Closed Arm ([3]; 1.5 mg/kg IP): 89.2 ± 15 | TIME Open Arm ([3]; 1.5 mg/kg IP): 141.3 ± 18

Insulin B chain: inactive insulin fragment
Blood glucose mean ± s.e.m. [5]: 100 ± 4.9 mg/dL

NC(=O)CC[C@@H]1NC(=O)[C@H](Cc2ccccc2)NC(=O)[C@H](Cc2ccc(O)cc2)NC(=O)[C@@H](N)CSSC[C@@H](C(=O)N2CCC[C@H]2C(=O)N[C@@H](CCCN=C(N)N)C(=O)NCC(N)=O)NC(=O)[C@H](CC(N)=O)NC1=O [vasopressin]
latency in PA [4, 9]: enhanced latency | latency in the PA test ([4]; intranasal, [Ser(2)]exendin(1-9) 3, 10, 30 μg, vasopressin 0.3 μg (FIG. 9A)): increased latency

C peptide
Blood glucose mean ± s.e.m. [5]: 90.3 ± 8.9 mg/dL

HAEGTFTSDVSSVLEGQAAKEFIAWLVKGR [GLP-1, glucagon-like peptide 1]
insulin release into culture media [6]: stimulated insulin release | ENTRIES Closed Arm [7]: 2.7 ± 0.5 | ENTRIES Open Arm [7]: 0.7 ± 0.4 | TIME Closed Arm [7]: 198.3 ± 29 | TIME Open Arm [7]: 16.7 ± 11 | ENTRIES Closed Arm ([3]; 10 μg IN): 4.8 ± 1.0 | ENTRIES Open Arm ([3]; 10 μg IN): 1.11 ± 0.3 | TIME Closed Arm ([3]; 10 μg IN): 171.8 ± 10^+ | TIME Open Arm ([3]; 10 μg IN): 11.6 ± 4 | ENTRIES Closed Arm ([3]; 30 μg IN): 2.1 ± 0.4 | ENTRIES Open Arm ([3]; 30 μg IN): 1.33 ± 0.4 | TIME Closed Arm ([3]; 30 μg IN): 197.2 ± 18 | TIME Open Arm ([3]; 30 μg IN): 22.1 ± 10 | anxiogenic effect, time spent in closed arms ([3]; intranasal): anxiogenic | blood glucose ([8]; 3 μg): 73.8 ± 2.2 P < 0.05 mg/dl | blood glucose ([8]; 10 μg): 70.6 ± 2.5 P < 0.01 mg/dl | blood glucose ([8]; 30 μg): 71.2 ± 2.1 P < 0.05 mg/dl | fasting blood glucose levels ([8]; intranasal): lowered fasting blood glucose levels | latency (not shown) ([1]; 100 ng i.c.v.): decrease latency | distance traveled to locate the platform ([1]; i.c.v., vs control rats): significantly reduced distance traveled | swimming speed ([1]; i.c.v., vs vehicle): decrease swimming speed | acquisition of spatial learning ([1]; modified MWM): did not affect acquisition of spatial learning | Blood glucose mean ± s.e.m. [5]: 89.5 ± 1.1 mg/dL | latency in PA [4, 9]: enhanced latency
